pIC50: −log10 of the molar value. Counter-ions that a name gives are not always drawn. Like-named read-outs stand apart in the source and are kept apart here.
Legend:
[1] = target: human JAK1 (a.a. 837-1142) (Homo sapiens, UniProt P23458); experiment: In vitro JAK kinase assay (HTRF, phosphorylation of biotinylated peptide), JAK1; assay type: biochemical
Method in brief: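 Phosphorylation of a biotinylated peptide was run at room temperature for 1 hour using the N-terminally His-tagged JAK1 kinase domain (837-1142) from insect cells. After an EDTA stop, Eu-Py20 and SA-APC gave an HTRF read; values are binned potency ranges.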

JAK2 (a.a. 828-1132) = target: T1, JAK2 (a.a. 828-1132) (Homo sapiens, UniProt O60674); experiment: In vitro JAK kinase assay (HTRF, phosphorylation of biotinylated peptide), JAK2; assay type: biochemical
T1 construct: JAK2 (a.a. 828-1132); His tag (N)
T1 sequence (O60674 828-1132): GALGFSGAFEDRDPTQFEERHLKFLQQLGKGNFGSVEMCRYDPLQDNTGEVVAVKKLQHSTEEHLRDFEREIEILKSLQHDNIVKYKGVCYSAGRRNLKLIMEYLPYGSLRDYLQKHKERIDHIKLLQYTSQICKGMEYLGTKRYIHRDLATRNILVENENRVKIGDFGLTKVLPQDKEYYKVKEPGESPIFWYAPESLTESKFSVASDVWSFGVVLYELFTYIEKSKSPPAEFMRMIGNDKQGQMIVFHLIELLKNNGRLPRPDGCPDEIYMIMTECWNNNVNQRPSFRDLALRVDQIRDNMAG
Method in brief: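 HTRF detection (Eu-Py20, SA-APC, 40 min) of biotinylated-peptide phosphorylation, following a 1 hour room-temperature reaction quenched with 45 mM EDTA. Enzymes: insect-cell-expressed N-terminal His-tagged JAK1 (837-1142) and JAK2 (828-1132) catalytic domains. Activities reported in ranged categories.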

[2] = Table B, 1 mM ATP, read-out: JAK1 IC50
[3] = Table B, 1 mM ATP, read-out: JAK2 IC50
[4] = Table A, 1 mM ATP, read-out: JAK1 IC50
[5] = Table A, 1 mM ATP, read-out: JAK2 IC50

human JAK1 (a.a. 837-1142), sequence (P23458 849-1154): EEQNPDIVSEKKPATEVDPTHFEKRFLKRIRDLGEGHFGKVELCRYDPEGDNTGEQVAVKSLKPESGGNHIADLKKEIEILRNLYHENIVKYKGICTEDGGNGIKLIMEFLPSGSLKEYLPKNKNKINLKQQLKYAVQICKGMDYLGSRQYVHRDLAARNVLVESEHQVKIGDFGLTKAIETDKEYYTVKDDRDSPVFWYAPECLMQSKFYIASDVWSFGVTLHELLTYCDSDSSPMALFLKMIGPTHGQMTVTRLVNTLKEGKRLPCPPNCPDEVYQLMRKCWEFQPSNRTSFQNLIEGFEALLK

Structure (SMILES)	pIC50 ([1]; Table F, 1 mM ATP)	pIC50 (JAK2 (a.a. 828-1132); Table F, 1 mM ATP)	also measured
CN(C)Cc1cc(F)cc(OC2CCN(C3CC(CC#N)(n4cc(-c5ncnc6[nH]ccc56)cn4)C3)CC2)c1 (single isomer, unassigned; isomer 2) [Example 40, isomer 2, {trans-3-(4-{3-[(dimethylamino)methyl]-5-fluorophenoxy}piperidin-1-yl)-1-[4-(7H-pyrrolo[2,3-d]pyrimidin-4-yl)-1H-pyrazol-1-yl]cyclobutyl}acetonitrile]	–	–	IC50 ([1]; read-out: JAK1 IC50 (nM) at 1 mM, Table E, 1 mM ATP): < 10 nM; IC50 (JAK2 (a.a. 828-1132); Table E, 1 mM ATP, listed as 40, isomer 2, read-out: JAK2 IC50 (nM) +): < 10 nM
CC[C@H]1CCCN1C(=O)N1CCN([C@H]2C[C@](CC#N)(n3cc(-c4ncnc5[nH]ccc45)cn3)C2)CC1 [Example 5, {trans-3-(4-{[(2S)-2-ethylpyrrolidin-1-yl]carbonyl}piperazin-1-yl)-1-[4-(7H-pyrrolo[2,3-d]pyrimidin-4-yl)-1H-pyrazol-1-yl]cyclobutyl}acetonitrile]	–	–	pIC50 [1, 2]: > 8.00; pIC50 (JAK2 (a.a. 828-1132); [3]): < 7.00
CCNCc1cc(OC2CCN([C@H]3C[C@](CC#N)(n4cc(-c5ncnc6[nH]ccc56)cn4)C3)CC2)nc(C(F)(F)F)c1 [Example 131, {trans-3-(4-{[4-[(ethylamino)methyl]-6-(trifluoromethyl)pyridin-2-yl]oxy}piperidin-1-yl)-1-[4-(7H-pyrrolo[2,3-d]pyrimidin-4-yl)-1H-pyrazol-1-yl]cyclobutyl}acetonitrile]	> 8.00	7.00 to 7.60	–
N#CCC1(n2cc(-c3ncnc4[nH]ccc34)cn2)CC(N2CCC(Oc3cc(CCO)nc(C(F)(F)F)n3)CC2)C1 (single isomer, unassigned; peak 2) [Example 164, peak 2, {cis-3-(4-{[6-(2-hydroxyethyl)-2-(trifluoromethyl)pyrimidin-4-yl]oxy}piperidin-1-yl)-1-[4-(7H-pyrrolo[2,3-d]pyrimidin-4-yl)-1H-pyrazol-1-yl]cyclobutyl}acetonitrile]	–	–	IC50 ([1]; read-out: JAK1 IC50 (nM) at 1 mM ATP, Table F, listed as 164, peak 2): 25 to 100 nM; IC50 (JAK2 (a.a. 828-1132); read-out: JAK2 IC50 (nM) at 1 mM ATP, Table F): > 100 nM
N#CC[C@]1(n2cc(-c3ncnc4[nH]ccc34)cn2)C[C@@H](N2CCN(C(=O)NC3CCC3)CC2)C1 [Example 104, 4-{cis-3-(cyanomethyl)-3-[4-(7H-pyrrolo[2,3-d]pyrimidin-4-yl)-1H-pyrazol-1-yl]cyclobutyl}-N-cyclobutylpiperazine-1-carboxamide]	7.60 to 8.00	< 7.00	–
N#CC[C@]1(n2cc(-c3ncnc4[nH]ccc34)cn2)C[C@@H](N2CCN(C(=O)Nc3ccc(F)cc3C(F)(F)F)CC2)C1 [Example 3a, 4-{cis-3-(cyanomethyl)-3-[4-(7H-pyrrolo[2,3-d]pyrimidin-4-yl)-1H-pyrazol-1-yl]cyclobutyl}-N-[4-fluoro-2-(trifluoromethyl)phenyl]piperazine-1-carboxamide 2.4×(trifluoroacetate) Salt]	–	–	pIC50 [1, 4]: 7.00 to 7.60; pIC50 (JAK2 (a.a. 828-1132); [5]): < 7.00
N#CC[C@]1(n2cc(-c3ncnc4[nH]ccc34)cn2)C[C@@H](N2CCN(C(=O)c3ccnc(C(F)(F)F)n3)CC2)C1 [Example 7a, [cis-1-[4-(7H-pyrrolo[2,3-d]pyrimidin-4-yl)-1H-pyrazol-1-yl]-3-(4-{[2-(trifluoromethyl)pyrimidin-4-yl]carbonyl}piperazin-1-yl)cyclobutyl]acetonitrile]	–	–	pIC50 [1, 4]: 7.60 to 8.00; pIC50 (JAK2 (a.a. 828-1132); [5]): < 7.00
CN(C)Cc1cc(Cl)nc(OC2CCN([C@H]3C[C@](CC#N)(n4cc(-c5ncnc6[nH]ccc56)cn4)C3)CC2)c1 [Example 141, {trans-3-[4-({6-chloro-4-[(dimethylamino)methyl]pyridin-2-yl}oxy)piperidin-1-yl]-1-[4-(7H-pyrrolo[2,3-d]pyrimidin-4-yl)-1H-pyrazol-1-yl]cyclobutyl}acetonitrile]	> 8.00	> 8.00	–
N#CC[C@]1(n2cc(-c3ncnc4[nH]ccc34)cn2)C[C@H](N2CCC(Oc3cc(CN)cc(C(F)(F)F)n3)CC2)C1 [Example 129, {trans-3-(4-{[4-(aminomethyl)-6-(trifluoromethyl)pyridin-2-yl]oxy}piperidin-1-yl)-1-[4-(7H-pyrrolo[2,3-d]pyrimidin-4-yl)-1H-pyrazol-1-yl]cyclobutyl}acetonitrile]	> 8.00	7.00 to 7.60	–
CN(C)Cc1cc(F)cc(C(=O)N2CCN([C@H]3C[C@](CC#N)(n4cc(-c5ncnc6[nH]ccc56)cn4)C3)CC2)c1 [Example 33, {trans-3-(4-{3-[(dimethylamino)methyl]-5-fluorobenzoyl}piperazin-1-yl)-1-[4-(7H-pyrrolo[2,3-d]pyrimidin-4-yl)-1H-pyrazol-1-yl]cyclobutyl}acetonitrile]	–	–	pIC50 [1, 2]: > 8.00; pIC50 (JAK2 (a.a. 828-1132); [3]): > 8.00

Continued, in another order:

pIC50 ([1]; Table F, 1 mM ATP)	pIC50 (JAK2 (a.a. 828-1132); Table F, 1 mM ATP)	Structure (SMILES)	also measured
> 8.00	7.00 to 7.60	CNCc1cc(C(=O)N2CCN([C@H]3C[C@](CC#N)(n4cc(-c5ncnc6[nH]ccc56)cn4)C3)CC2)nc(C(F)(F)F)n1 [Example 50, {trans-3-(4-{[6-[(methylamino)methyl]-2-(trifluoromethyl)pyrimidin-4-yl]carbonyl}piperazin-1-yl)-1-[4-(7H-pyrrolo[2,3-d]pyrimidin-4-yl)-1H-pyrazol-1-yl]cyclobutyl}acetonitrile]	–
> 8.00	7.60 to 8.00	CC(C)(O)c1cc(C(=O)N2CCN([C@H]3C[C@](CC#N)(n4cc(-c5ncnc6[nH]ccc56)cn4)C3)CC2)nc(C(F)(F)F)n1 [Example 58, {trans-3-(4-{[6-(1-hydroxy-1-methylethyl)-2-(trifluoromethyl)pyrimidin-4-yl]carbonyl}piperazin-1-yl)-1-[4-(7H-pyrrolo[2,3-d]pyrimidin-4-yl)-1H-pyrazol-1-yl]cyclobutyl}acetonitrile]	–
> 8.00	7.00 to 7.60	N#CC[C@]1(n2cc(-c3ncnc4[nH]ccc34)cn2)C[C@H](N2CCN(C(=O)c3cc(CNC4CCC4)nc(C(F)(F)F)n3)CC2)C1 [Example 56, {trans-3-(4-{[6-[(cyclobutylamino)methyl]-2-(trifluoromethyl)pyrimidin-4-yl]carbonyl}piperazin-1-yl)-1-[4-(7H-pyrrolo[2,3-d]pyrimidin-4-yl)-1H-pyrazol-1-yl]cyclobutyl}acetonitrile]	–
> 8.00	7.00 to 7.60	COC(C)(C)c1cc(C(=O)N2CCN([C@H]3C[C@](CC#N)(n4cc(-c5ncnc6[nH]ccc56)cn4)C3)CC2)nc(C(F)(F)F)n1 [Example 69, {trans-3-(4-{[6-(1-methoxy-1-methylethyl)-2-(trifluoromethyl)pyrimidin-4-yl]carbonyl}piperazin-1-yl)-1-[4-(7H-pyrrolo[2,3-d]pyrimidin-4-yl)-1H-pyrazol-1-yl]cyclobutyl}acetonitrile]	–
7.60 to 8.00	< 7.00	CN(C)Cc1cc(C(=O)N2CCN([C@H]3C[C@@](CC#N)(n4cc(-c5ncnc6[nH]ccc56)cn4)C3)CC2)cc(C(F)(F)F)c1 [Example 135, {cis-3-{4-[3-[(dimethylamino)methyl]-5-(trifluoromethyl)benzoyl]piperazin-1-yl}-1-[4-(7H-pyrrolo[2,3-d]pyrimidin-4-yl)-1H-pyrazol-1-yl]cyclobutyl}acetonitrile]	–
> 8.00	7.00 to 7.60	N#CC[C@]1(n2cc(-c3ncnc4[nH]ccc34)cn2)C[C@H](N2CCN(C(=O)c3cc(CN)cc(C(F)(F)F)n3)CC2)C1 [Example 67, {trans-3-(4-{[4-(aminomethyl)-6-(trifluoromethyl)pyridin-2-yl]carbonyl}piperazin-1-yl)-1-[4-(7H-pyrrolo[2,3-d]pyrimidin-4-yl)-1H-pyrazol-1-yl]cyclobutyl}acetonitrile]	–
